Laboratory results as given in ChEMBL document CHEMBL3425445, “Synthesis, crystal structure and biological evaluation of substituted quinazolinone benzoates as novel antituberculosis agents targeting acetohydroxyacid synthase” (Eur J Med Chem, 2015).
Converted amounts (≈) assume the structure as drawn.

How the values were obtained:
[1] = test system: Mycobacterium tuberculosis; assay: Antitubercular activity against Mycobacterium tuberculosis H37Rv ATCC 27294 infected in human THP-1 cells assessed as inhibition of intracellular activity at 10 mg/L after 4 days; assay type: functional; settings: H37Rv ATCC 27294, THP-1, 96 h
[2] = test system: Mycobacterium tuberculosis; assay: Antitubercular activity against isoniazid, rifampin, streptomycin, ethambutol, amikacin, ofloxacin, kanamycin-susceptible Mycobacterium tuberculosis infected in human THP-1 cells assessed as inhibition of intracellular activity at 20 mg/L after 4 days; assay type: functional; settings: THP-1, 96 h
[3] = test system: Mycobacterium tuberculosis; assay: Antitubercular activity against Mycobacterium tuberculosis H37Rv ATCC 27294 assessed as inhibition of bacterial growth after 4 weeks by two-fold dilution technique; assay type: functional; settings: H37Rv ATCC 27294, 672 h
[4] = test system: Mycobacterium tuberculosis; assay: Antitubercular activity against isoniazid, rifampin, streptomycin, ethambutol, amikacin, ofloxacin, kanamycin-susceptible Mycobacterium tuberculosis infected in human THP-1 cells assessed as inhibition of intracellular activity at 10 mg/L after 4 days; assay type: functional; settings: THP-1, 96 h
[5] = Inhibition of Mycobacterium tuberculosis AHAS catalytic subunit assessed as inhibition of acetoin formation using […] as substrate after 1 hr
[6] = test system: Mycobacterium tuberculosis; assay: Antitubercular activity against Mycobacterium tuberculosis H37Rv ATCC 27294 infected in human THP-1 cells assessed as inhibition of intracellular activity at 20 mg/L after 4 days; assay type: functional; settings: H37Rv ATCC 27294, THP-1, 96 h
[7] = test system: Mycobacterium tuberculosis; assay: Antitubercular activity against isoniazid, rifampin, streptomycin, ethambutol, amikacin, ofloxacin, kanamycin-susceptible Mycobacterium tuberculosis assessed as inhibition of bacterial growth after 4 weeks by two-fold dilution technique; assay type: functional; settings: 672 h
[8] = test system: Mycobacterium tuberculosis; assay: Inhibition of Mycobacterium tuberculosis AHAS catalytic subunit assessed as inhibition of acetoin formation using […] as substrate at 100 uM after 1 hr
THP-1 = assay: Cytotoxicity against human THP1 cells at 20 mg/L by MTT assay; assay type: cell-based

Structure (SMILES) | inhibition at 10 µg/mL [1] | inhibition at 20 µg/mL [2] | MIC [3] | inhibition at 10 µg/mL [4] | IC50 [5] | inhibition at 20 µg/mL [6] | MIC [7] | inhibition [8] | Activity (THP-1)
COC(=O)c1ccccc1S(=O)(=O)NC(=O)Nc1nc(C)cc(C)n1 [SULFOMETURON METHYL] | 15.9% | 32.3% | 10 µg/mL (≈ 27.4 µM) | 15.5% | 4.79 µM | 32.5% | 10 µg/mL (≈ 27.4 µM) |  | 
O=C(On1c(-c2cccc(F)c2)nc2ccccc2c1=O)c1cccc(Cl)c1 |  |  | > 50 µg/mL |  | > 100 µM |  |  | 42.5% | 
NNC(=O)c1ccncc1 [ISONIAZID] |  |  |  |  |  |  | 0.2 µg/mL (≈ 1.46 µM) |  | 
COc1cccc(-c2nc3ccccc3c(=O)n2OC(=O)c2cccc([N+](=O)[O-])c2)c1 |  |  | 5 µg/mL (≈ 12 µM) |  | 8.74 µM |  | 5 µg/mL (≈ 12 µM) | 94% | 
Cc1cccc(-c2nc3ccccc3c(=O)n2OC(=O)c2ccccc2)c1 |  |  | > 50 µg/mL |  | > 100 µM |  |  | 40.5% | 
Cc1cccc(-c2nc3ccccc3c(=O)n2OC(=O)c2ccc(Cl)cc2)c1 |  |  | > 50 µg/mL |  | > 100 µM |  |  | 0% | 
O=C(On1c(-c2ccccc2)nc2ccccc2c1=O)c1cccc(F)c1 |  |  | > 50 µg/mL |  | > 100 µM |  |  | 26% | 
Cc1cccc(-c2nc3ccccc3c(=O)n2OC(=O)c2cccc(C(F)(F)F)c2)c1 |  |  | > 50 µg/mL |  | > 100 µM |  |  | 9.5% | 
Cc1ccccc1-c1nc2ccccc2c(=O)n1OC(=O)c1cccc(F)c1 |  |  | > 50 µg/mL |  | > 100 µM |  |  | 30% | 
Cc1ccc(C(=O)On2c(-c3cccc(C)c3)nc3ccccc3c2=O)cc1 |  |  | > 50 µg/mL |  | > 100 µM |  |  | 33% | 
O=C(On1c(-c2ccccc2)nc2ccccc2c1=O)c1cccc(Cl)c1 |  |  | 5 µg/mL (≈ 13.3 µM) |  | 12.1 µM |  | 5 µg/mL (≈ 13.3 µM) | 80.5% | 
Cc1cccc(C(=O)On2c(-c3cccc(C)c3)nc3ccccc3c2=O)c1 |  |  | > 50 µg/mL |  | > 100 µM |  |  | 10.5% | 
COc1cccc(C(=O)On2c(-c3cccc(F)c3)nc3ccccc3c2=O)c1 |  |  | 50 µg/mL (≈ 128 µM) |  | > 100 µM |  |  | 28% | 
O=C(On1c(-c2cccc(F)c2)nc2ccccc2c1=O)c1cccc(F)c1 | 24.8% | 48.2% | 2.5 µg/mL (≈ 6.61 µM) | 23.4% | 6.5 µM | 49.5% | 2.5 µg/mL (≈ 6.61 µM) | 72% | Non-toxic
Cc1cccc(C(=O)On2c(-c3ccccc3)nc3ccccc3c2=O)c1 |  |  | > 50 µg/mL |  | > 100 µM |  |  | 4% | 
COc1cccc(-c2nc3ccccc3c(=O)n2OC(=O)c2cccc(C(F)(F)F)c2)c1 |  |  | 10 µg/mL (≈ 22.7 µM) |  | 9.57 µM |  | 10 µg/mL (≈ 22.7 µM) | 73.2% | 
Cc1ccccc1C(=O)On1c(-c2ccccc2)nc2ccccc2c1=O |  |  | > 50 µg/mL |  | > 100 µM |  |  | 16.5% | 
Cc1ccc(C(=O)On2c(-c3ccccc3)nc3ccccc3c2=O)cc1 |  |  | > 50 µg/mL |  | > 100 µM |  |  | 18% | 
COc1cccc(C(=O)On2c(-c3ccccc3)nc3ccccc3c2=O)c1 |  |  | > 50 µg/mL |  | > 100 µM |  |  | 27% | 
COc1cccc(-c2nc3ccccc3c(=O)n2OC(=O)c2cccc(Cl)c2)c1 |  |  | > 50 µg/mL |  | > 100 µM |  |  | 23.5% | 
O=C(On1c(-c2ccccc2)nc2ccccc2c1=O)c1ccc(Cl)cc1 |  |  | > 50 µg/mL |  | > 100 µM |  |  | 7.5% | 
O=C(On1c(-c2ccccc2)nc2ccccc2c1=O)c1ccccc1 |  |  | > 50 µg/mL |  | > 100 µM |  |  | 20.5% | 
O=C(On1c(-c2ccccc2)nc2ccccc2c1=O)c1cccc([N+](=O)[O-])c1 |  |  | 5 µg/mL (≈ 12.9 µM) |  | 9.68 µM |  | 5 µg/mL (≈ 12.9 µM) | 91.5% | 
O=C(On1c(-c2cccc(F)c2)nc2ccccc2c1=O)c1cccc(C(F)(F)F)c1 |  |  | > 50 µg/mL |  | > 100 µM |  |  | 30% | 
Cc1cccc(-c2nc3ccccc3c(=O)n2OC(=O)c2cccc(F)c2)c1 |  |  | > 50 µg/mL |  | > 100 µM |  |  | 9.5% | 
CO[C@H]1/C=C/O[C@@]2(C)Oc3c(C)c(O)c4c(O)c(c(/C=N/N5CCN(C)CC5)c(O)c4c3C2=O)NC(=O)/C(C)=C\C=C\[C@H](C)[C@H](O)[C@@H](C)[C@@H](O)[C@@H](C)[C@H](OC(C)=O)[C@@H]1C [RIFAMPIN] |  |  |  |  |  |  | 0.4 µg/mL (≈ 0.486 µM) |  | 
O=C(On1c(-c2cccc(F)c2)nc2ccccc2c1=O)c1ccccc1 |  |  | 50 µg/mL (≈ 139 µM) |  | > 100 µM |  |  | 26% | 
